What all share (assay type): biochemical
One assay has as its target T1, MMP9 (Homo sapiens, UniProt P14780).
T1 construct: purchased BioMol International AK-410
The experiment in a line: Matrix metalloproteinase enzyme activity assay, MMP9. Conditions: for MMP9 Inhibition (0.001%): 0.001% test compound, Table 2; for MMP9 Inhibition (0.001%) / MMP9 Inhibition (0.01%): negative = inhibition vs diluent control; for inhibition at 0.01 % / MMP9 Inhibition (0.01%): 0.01% test compound, Table 3. From the text:
(§1) Matrix metalloproteinase enzyme activity (MMP3; MMP9) assay: An in vitro matrix metalloprotease (MMP) inhibition assay. MMPs are extracellular proteases that play a role in many normal and disease states by virtue of their broad substrate specificity. MMP3 substrates include collagens, fibronectins, and laminin; while MMP9 substrates include collagen VII, fibronectins and laminin. Using Colorimetric Drug Discovery kits from BioMol International for MMP3 (AK-400) and MMP-9 (AK-410), this assay is designed to measure protease activity of MMPs using a thiopeptide as a chromogenic substrate (Ac-PLG-[2-mercapto-4-methyl-pentanoyl]-LG-OC2H5)5,6. The MMP cleavage site peptide bond is replaced by a thioester bond in the thiopeptide. Hydrolysis of this bond by an MMP produces a sulfhydryl group, which reacts with DTNB [5,5′-dithiobis(2-nitrobenzoic acid), Ellman's reagent] to form 2-nitro-5-thiobenzoic acid, which can be detected by its absorbance at 412 nm (ε=13,600 M-1 cm-1 at pH 6.0 and above 7). Data is reflected as % inhibition of the purified enzyme activity.

A further assay addresses T2, COX-2 (Ovis aries, UniProt P79208).
T2 construct: purchased Cayman Chemical 760111
T2 sequence (P79208 17-603): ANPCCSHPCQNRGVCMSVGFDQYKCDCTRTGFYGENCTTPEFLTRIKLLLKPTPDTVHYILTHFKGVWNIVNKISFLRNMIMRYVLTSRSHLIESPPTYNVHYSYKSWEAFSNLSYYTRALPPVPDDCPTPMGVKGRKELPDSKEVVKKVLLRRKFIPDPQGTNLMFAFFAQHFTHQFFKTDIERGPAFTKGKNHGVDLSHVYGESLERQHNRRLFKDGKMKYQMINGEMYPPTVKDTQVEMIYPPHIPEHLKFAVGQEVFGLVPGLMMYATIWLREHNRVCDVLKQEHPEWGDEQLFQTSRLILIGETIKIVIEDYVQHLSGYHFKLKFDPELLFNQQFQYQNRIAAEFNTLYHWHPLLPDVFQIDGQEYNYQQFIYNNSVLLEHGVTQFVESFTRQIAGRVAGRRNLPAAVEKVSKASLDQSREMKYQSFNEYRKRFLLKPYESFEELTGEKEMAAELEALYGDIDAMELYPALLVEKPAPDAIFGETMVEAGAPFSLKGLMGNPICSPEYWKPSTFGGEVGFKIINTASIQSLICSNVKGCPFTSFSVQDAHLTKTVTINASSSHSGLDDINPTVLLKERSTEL
Put plainly: Colorimetric COX (ovine) inhibitor screening assay, COX-2. Conditions: 0.001% test compound; for inhibition at 0.001 %: 0.25 h; for Cox-2 Inhibition (0.001%): negative = inhibition vs non-treated control. An excerpt:
(§2) Cyclooxygenase (COX) assay: An in vitro cyclooxygenase-1 and -2 (COX-1, -2) inhibition assay. […] The cyclooxygenase activity converts arachidonic acid to a hydroperoxy endoperoxide (Prostaglandin G2; PGG2) and the peroxidase component reduces the endoperoxide (Prostaglandin H2; PGH2) to the corresponding alcohol, the precursor of prostaglandins, thromboxanes, and prostacyclins. This COX Inhibitor Screening Assay measures the peroxidase component of cyclooxygenases. The peroxidase activity is assayed colorimetrically by monitoring the appearance of oxidized N,N,N′,N′-tetramethyl-p-phenylenediamine (TMPD). This inhibitor screening assay includes both COX-1 and COX-2 enzymes in order to screen isozyme-specific inhibitors.
(§3) Following manufacturer instructions for the Colormetric COX (ovine) Inhibitor screening assay (#760111, Cayman Chemical), purified cyclooxygnase enzyme (COX-1 or COX-2), heme and test compounds were mixed in assay buffer and incubated with shaking for 15 min at room temperature. Following incubation, arachidonic acid and colorimetric substrate were added to initiate the reaction and incubated for an additional 15 min at room temperature with shaking. Color progression was evaluated by fluoresecence plate reading at 590 nm. The percent inhibition of COX-1 or COX-2 activity was calculated compared to non-treated controls to determine the ability of test compounds to inhibit the activity of purified enzyme.

The next assay addresses T3, MMP3 (Homo sapiens, UniProt P08254).
T3 construct: purchased BioMol International AK-400
The experiment in a line: Matrix metalloproteinase enzyme activity assay, MMP3. Conditions: 0.001% test compound; negative = inhibition vs diluent control; Table 2.
Text: as §1

The next assay concerns the target T4, COX-1 (Ovis aries, UniProt P05979).
T4 construct: purchased Cayman Chemical 760111
T4 sequence (P05979 25-600): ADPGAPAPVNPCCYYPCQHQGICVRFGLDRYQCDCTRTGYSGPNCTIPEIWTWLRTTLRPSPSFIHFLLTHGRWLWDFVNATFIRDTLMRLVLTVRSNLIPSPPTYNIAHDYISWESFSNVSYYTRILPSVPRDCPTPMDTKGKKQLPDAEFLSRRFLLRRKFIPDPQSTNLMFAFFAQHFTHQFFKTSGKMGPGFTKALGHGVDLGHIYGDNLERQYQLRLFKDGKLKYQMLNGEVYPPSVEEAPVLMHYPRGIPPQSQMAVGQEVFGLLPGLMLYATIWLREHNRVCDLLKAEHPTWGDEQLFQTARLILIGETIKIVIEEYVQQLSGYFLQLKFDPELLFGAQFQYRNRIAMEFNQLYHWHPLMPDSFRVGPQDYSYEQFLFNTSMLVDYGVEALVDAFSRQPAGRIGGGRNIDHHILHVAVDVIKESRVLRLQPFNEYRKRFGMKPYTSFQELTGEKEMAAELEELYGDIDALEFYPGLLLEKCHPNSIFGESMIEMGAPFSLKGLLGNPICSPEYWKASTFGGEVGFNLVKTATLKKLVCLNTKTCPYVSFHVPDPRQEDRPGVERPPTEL
The experiment in a line: Colorimetric COX (ovine) inhibitor screening assay, COX-1. Conditions: negative = inhibition vs non-treated control; for Cox-1 Inhibition (0.020%): 0.020% test compound, Table 2.
Text: as §2, §3

A further assay has as its target T5, 15-lipoxygenase (Glycine max, UniProt P08170).
T5 construct: purchased Cayman Chemical 760700
T5 sequence (P08170 1-839): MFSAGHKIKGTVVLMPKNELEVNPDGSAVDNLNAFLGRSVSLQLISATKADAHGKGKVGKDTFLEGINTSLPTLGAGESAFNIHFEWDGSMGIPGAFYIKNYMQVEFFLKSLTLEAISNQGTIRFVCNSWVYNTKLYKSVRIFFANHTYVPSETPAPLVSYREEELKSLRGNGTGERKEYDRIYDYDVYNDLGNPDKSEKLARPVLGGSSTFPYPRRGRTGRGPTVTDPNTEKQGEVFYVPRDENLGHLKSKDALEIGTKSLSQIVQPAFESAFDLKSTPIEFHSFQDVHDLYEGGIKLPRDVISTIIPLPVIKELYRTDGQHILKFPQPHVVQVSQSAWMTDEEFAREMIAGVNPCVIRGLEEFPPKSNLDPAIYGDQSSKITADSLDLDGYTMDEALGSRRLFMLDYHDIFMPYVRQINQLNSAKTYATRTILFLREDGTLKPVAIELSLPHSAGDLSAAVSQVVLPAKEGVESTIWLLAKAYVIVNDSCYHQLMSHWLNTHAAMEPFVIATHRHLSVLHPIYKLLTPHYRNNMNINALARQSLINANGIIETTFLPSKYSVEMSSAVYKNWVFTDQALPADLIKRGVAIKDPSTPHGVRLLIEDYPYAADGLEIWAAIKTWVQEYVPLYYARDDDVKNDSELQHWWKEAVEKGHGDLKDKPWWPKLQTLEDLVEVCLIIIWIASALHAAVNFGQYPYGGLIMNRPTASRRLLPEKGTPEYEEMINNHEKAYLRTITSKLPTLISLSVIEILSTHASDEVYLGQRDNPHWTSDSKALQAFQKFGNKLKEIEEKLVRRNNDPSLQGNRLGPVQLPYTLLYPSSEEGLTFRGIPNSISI
Put plainly: Lipoxygenase (LO) inhibition assay. Conditions: 0.1% test compound; negative = inhibition vs non-treated control; Table 2. The method, then:
Lipoxygenase (LO) assay: An in vitro lipoxygenase (LO) inhibition assay. LOs are non-heme iron-containing dioxygenases that catalyze the addition of molecular oxygen to fatty acids. Linoleate and arachidonate are the main substrates for LOs in plants and animals. […] This assay provides an accurate and convenient method for screening lipoxygenase inhibitors by measuring the hydroperoxides generated from the incubation of a lipoxygenase (5-, 12-, or 15-LO) with arachidonic acid.
Following incubation, arachidonic acid was added to initiate the reaction and mixtures incubated for an additional 10 min at room temperature. Colorimetric substrate was added to terminate catalysis and color progression was evaluated by fluorescence plate reading at 490 nm. The percent inhibition of lipoxyganse activity was calculated compared to non-treated controls to determine the ability of test compounds to inhibit the activity of purified enzyme.

T1 sequence (P14780 107-444 limits assumed): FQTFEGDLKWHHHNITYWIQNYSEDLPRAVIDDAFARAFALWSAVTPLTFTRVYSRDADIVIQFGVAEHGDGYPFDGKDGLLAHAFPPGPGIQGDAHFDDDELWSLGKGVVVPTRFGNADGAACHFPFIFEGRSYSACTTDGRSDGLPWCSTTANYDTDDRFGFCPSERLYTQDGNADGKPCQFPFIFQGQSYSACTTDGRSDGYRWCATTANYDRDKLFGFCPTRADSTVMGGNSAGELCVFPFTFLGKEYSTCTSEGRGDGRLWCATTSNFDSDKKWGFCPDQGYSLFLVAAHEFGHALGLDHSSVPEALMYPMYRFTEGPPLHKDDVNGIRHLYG
T3 sequence (P08254 100-272 limits assumed): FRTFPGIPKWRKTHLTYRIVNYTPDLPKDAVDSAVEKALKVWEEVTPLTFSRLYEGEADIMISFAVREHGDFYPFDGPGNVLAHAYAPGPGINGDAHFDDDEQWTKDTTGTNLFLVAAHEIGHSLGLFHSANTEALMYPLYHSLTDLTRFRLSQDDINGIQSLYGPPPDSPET

With `CCCCCCCCC/C=C/C=O` [2-dodecenal (E)], at MMP9, the “MMP9 Inhibition (0.001%)” value is given as −24.98%.

`CCC/C(CC(=O)CC)=N/O` [Stemone, (Z)-5-(hydroxyimino)octan-3-one]: on COX-2 (Table 3), the inhibition (commonly the relative decrease from the control value, in per cent) at 0.001 % stood at 22.3%.

`CC(=O)/C=C/C1=C(C)CCCC1(C)C` [Beta Ionone, (3E)-4-(2,6,6-trimethylcyclohex-1-en-1-yl)but-3-en-2-one]: the “MMP9 Inhibition (0.001%)” value at MMP9 was −19.82%.

Consider “1-(1,2,3,4,5,6,7,8-octahydro-2,3,8,8-tetramethyl-2-naphthalenyl)ethan-1-one; 1-(2,3,8,8-tetramethyl-1,2,3,5,6,7,8,8a-octahydronaphthalen-2-yl)ethanone; and 1-(2,3,8,8-tetramethyl-1,2,3,4,6,7,8,8a-octahydronaphthalen-2-yl)ethanone [Iso E super]”, for which the “Cox-2 Inhibition (0.001%)” value on COX-2 (Table 3) was −20.80%.

In turn, `CCCC/C=C/C=C/C=O` [2,4-nonadien-1-al] came in with an inhibition at 0.001 % at COX-2 (Table 2) of 21.1%. Besides, the “MMP3 Inhibition (0.001%)” value on MMP3 is recorded as −23.75%. Besides, at MMP9, the “MMP9 Inhibition (0.001%)” value is on record as −19.87%.

On to `CC(C)=CCCC1=CCCC(C)(C=O)C1` (stereo not drawn) [Precyclemone B, 1-methyl-3-(4-methylpent-3-enyl)cyclohex-3-enecarbaldehyde], for which, on MMP3, the “MMP3 Inhibition (0.001%)” value is −25.09%.

Consider `CC(=O)OCCC(C)CCC=C(C)C` (stereo not drawn) [Citronellyl Acetate, 3,7-dimethyl-6-octen-1-yl acetate], for which the “Cox-1 Inhibition (0.001%)” value on COX-1 (0.001% test compound, Table 4) was −27.99%. Further, the inhibition at 0.001 % on COX-2 (Table 4) stood at 20.9%.

The molecule `CCC/C=C\COC(C)=O` [Leaf Acetate, cis-2-hexenyl acetate] yielded an inhibition at 0.01 % against MMP9 of 22%.

Take 3-hexen-1-ol (E) and (Z): on COX-2 (Table 3), the “Cox-2 Inhibition (0.001%)” value is on record as −23.56%. The “MMP9 Inhibition (0.01%)” value at MMP9 is reported as −23.82%.

At COX-2 (Table 3), `CCCCCC1CCC(=O)O1` (stereo not drawn) [Aldehyde C-18, 5-pentyldihydrofuran-2(3H)-one] showed an inhibition at 0.001 % of 22.6%. The inhibition at 0.01 % at MMP9 amounted to 22.2%.

As to `O=C1CCCCCCCCCCCC(=O)OCCO1` [Ethylene Brassylate, 1,4-dioxacycloheptadecane-5,17-dione], the inhibition at 0.001 % against COX-2 (Table 3) is 20.6%. The same molecule yielded an inhibition at 0.01 % on MMP9 of 33%.

For the molecule “2,6-nonadien-1-al (trans, trans; trans, cis)”, the “Cox-1 Inhibition (0.020%)” value at COX-1 is given as −11.42%. Also, the “Cox-2 Inhibition (0.001%)” value at COX-2 (Table 2) is −17.58%. Moreover, the “LO Inhibition (0.1%)” value on 15-lipoxygenase is −45.58%. Besides, the “MMP3 Inhibition (0.001%)” value on MMP3 is −20.34%. The “MMP9 Inhibition (0.001%)” value at MMP9 is recorded as −32.53%.

`CC1=CCC(/C=C/C(C)(C)C(C)O)C1(C)C` (stereo not drawn) [Polysantol, 3,3-dimethyl-5(2,2,3-trimethyl-3-cyclopenten-1-yl)-4-penten-2-ol]: the inhibition at 0.001 % at COX-2 (Table 3) came to 36.1%.

As to `CC/C=C\CCCCC=O` [Cis-6-Nonenal, cis-6-nonenal], on COX-2 (Table 3), the inhibition at 0.001 % was 27.1%. This molecule also registered an inhibition at 0.01 % against MMP9 of 19.2%.

Regarding `CC(C)=CCCC(C)C=O` (stereo not drawn) [Melanol, 2,6-dimethyl-5-heptenal], on 15-lipoxygenase, the “LO Inhibition (0.1%)” value was −20.45%.

Take `CC/C=C(\C)C(O)CCCCC` (stereo not drawn) [4-methyl-3-decen-5-ol]: the inhibition at 0.01 % on MMP9 amounted to 28.1%.

Take “(2,4,6-)trimethyl-3-cyclohexene-1-carboxaldehyde and (3,5,6-)trimethyl-3-cyclohexene-1-carboxaldehyde [Iso Cyclo Citral]”: the “Cox-2 Inhibition (0.001%)” value on COX-2 (Table 3) is given as −31.58%. Also, the “MMP9 Inhibition (0.01%)” value on MMP9 is recorded as −21.78%.

Take “3a,4,5,6,7,7a-hexahydro-4,7-methano-1h-inden-5(or 6)-yl acetate [Cyclacet]”: the “LO Inhibition (0.1%)” value at 15-lipoxygenase is −26.37%.

In the case of `C=C1CCCC(C)(C)C1C(=O)OC` (stereo not drawn) [Romascone ®, methyl 2,2-dimethyl-6-methylenecyclohexanecarboxylate], the inhibition at 0.001 % on COX-2 (Table 3) stood at 23.3%.

With `CC(=O)OC1CCC(C(C)(C)C)CC1` (stereo not drawn) [Vertenex ® H.C., 4-tert-butylcyclohexyl acetate], the “Cox-1 Inhibition (0.020%)” value at COX-1 was −18.50%. Moreover, the “LO Inhibition (0.1%)” value on 15-lipoxygenase is given as −37.86%.

On to `CCOC(=O)C1C2C=CC(C2)C1C(C)C` (stereo not drawn) [Herbanante, ethyl 3-isopropylbicyclo[2.2.1]hept-5-ene-2-carboxylate], for which the inhibition at 0.001 % at COX-2 (Table 3) worked out at 25.1%. In addition, the inhibition at 0.01 % against MMP9 amounted to 26.8%.

As for `CCCCCCCCCCCC=O` [Aldehyde C-12 Lauric, 1-dodecanal], the “MMP9 Inhibition (0.001%)” value on MMP9 is on record as −27.64%.

Values taken from US8399521B2, “Methods of treating skin with aromatic skin-active ingredients” (Mary Kay Inc., priority 2008, dated 2013).
